Measured values taken from US20260176320A1, “MODULATORS OF G-PROTEIN COUPLED RECEPTORS” (priority 2018, published 2026).
Where two headings read alike, the source gives them in different places. Numbered stars: 1 amine (or outer) side, 2 acyl side, 3 side chain; on linkers, the order of the positions; unused ones are H or OH. Square brackets hold non-standard residues; d marks the D form. Side chains are listed from the residue outwards. Peptide text beside a SMILES is read from it. * marks the point of attachment. Ala(1H-tetrazol-5-yl) = N[C@@H](Cc1nnn[nH]1)C(=O)O; X1 = O=C(CSCC(=O)*)NCCN1C(=O)c2ccccc2C1=O; γGlu = O=C(O)[C@H](CCC(=O)[*:2])N[*:1]; Palmitoyl = CCCCCCCCCCCCCCCC(=O)*; X6 = O=C(CSCC(=O)*)NCCN1CCCCC1=O; Aib = CC(C)(N)C(=O)O

Experiments:
Format in all cases: cell-based
GIP-R = biological target: T1, GIP-R (Homo sapiens, UniProt P48546); test: HitHunter cAMP assay (GIP-R); details: cAMP; for Emax: read-out: (Emax) GIP-R
T1 sequence (P48546 22-466): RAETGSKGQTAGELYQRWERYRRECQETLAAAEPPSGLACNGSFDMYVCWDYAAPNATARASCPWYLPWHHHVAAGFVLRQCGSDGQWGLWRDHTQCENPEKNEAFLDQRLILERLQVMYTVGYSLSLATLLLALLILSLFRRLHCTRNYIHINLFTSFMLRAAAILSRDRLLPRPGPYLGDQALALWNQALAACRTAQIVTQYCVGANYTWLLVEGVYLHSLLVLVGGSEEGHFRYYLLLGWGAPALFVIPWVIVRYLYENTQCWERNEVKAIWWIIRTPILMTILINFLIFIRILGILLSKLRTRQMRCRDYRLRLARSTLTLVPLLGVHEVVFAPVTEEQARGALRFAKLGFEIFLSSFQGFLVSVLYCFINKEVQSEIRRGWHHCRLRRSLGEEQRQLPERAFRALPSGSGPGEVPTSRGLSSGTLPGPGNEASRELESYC
Outline: (§1)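 cAMP, luminescence read: agonist 22-pt 2× dilution in DMSO, duplicate, 30 min RT on 10,000 cells/well in 1×HBSS/10 mM HEPES/625 μM IBMX/0.2% BSA; anti-cAMP reagent 1 h RT dark, then O/N RT dark before read.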

GLP-1R [1] = biological target: T2, GLP-1R (Homo sapiens, UniProt P43220); test: PathHunter β-arrestin assay
Outline: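 Luminescence read-out of β-arrestin recruitment (enzyme-fragment complementation detection, 3 h at room temperature in the dark) after 90 min agonist stimulation at 37 °C. Agonists tested as 22-point 2× serial dilutions in duplicate, in medium containing 0.2% BSA.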

GLP-1R [2] = biological target: T2, GLP-1R; test: HitHunter cAMP assay (GLP-1R); details: cAMP; for Emax: read-out: (Emax) GLP-1R
Outline: as §1

[3] = Table 3, read-out: EC50 GIP-R/nM
[4] = Table 3A, read-out: EC50 GIP-R/nM
[5] = PathHunter β-arrestin assay, read-out: β-arrestin activity EC50
[6] = Table 3, read-out: EC50 GLP-1R/nM
[7] = Table 3A, read-out: EC50 GLP-1R/nM

T2 sequence (P43220 24-463): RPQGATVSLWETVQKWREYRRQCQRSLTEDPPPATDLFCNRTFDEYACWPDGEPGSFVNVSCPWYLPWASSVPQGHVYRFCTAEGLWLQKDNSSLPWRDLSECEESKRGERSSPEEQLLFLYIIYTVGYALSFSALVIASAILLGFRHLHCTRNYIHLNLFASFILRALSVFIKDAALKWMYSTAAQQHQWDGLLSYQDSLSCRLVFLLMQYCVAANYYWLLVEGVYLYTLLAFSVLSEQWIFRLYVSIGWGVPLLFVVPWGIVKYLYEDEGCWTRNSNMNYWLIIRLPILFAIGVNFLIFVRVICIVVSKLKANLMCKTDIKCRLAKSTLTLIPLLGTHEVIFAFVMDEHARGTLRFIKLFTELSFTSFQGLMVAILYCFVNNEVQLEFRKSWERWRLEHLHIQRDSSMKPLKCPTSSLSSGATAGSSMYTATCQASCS

| SMILES | Emax (GIP-R; Table 3) | EC50 (GIP-R; [3]) | Emax (GIP-R; Table 3A) | EC50 (GIP-R; [4]) | EC50 (GLP-1R [1]; [5]) | Emax (GLP-1R [2]; Table 3) | EC50 (GLP-1R [2]; [6]) | Emax (GLP-1R [2]; Table 3A) | EC50 (GLP-1R [2]; [7]) | EC50 (GIP-R; EC50 GIP-R/nM, Table 3) | EC50 (GLP-1R [1]) | EC50 (GLP-1R [2]; EC50 GLP-1R/nM, Table 3) | EC50 (GLP-1R [2]; EC50 GLP-1R/nM, Table 3A) | Emax at 1 µM (GIP-R; read-out: (Emax) GIP-R at 1 μM, Table 3, at 1 μM) | EC50 (GIP-R; read-out: EC50 GIP-R/nM, Table 3A) | EC50 (GIP-R; EC50 GIP-R/nM, Table 3A) |
| --- | --- | --- | --- | --- | --- | --- | --- | --- | --- | --- | --- | --- | --- | --- | --- | --- |
| CCCCCCCCCCCCCCCC(=O)N[C@@H](CCC(=O)NCCCC[C@H](NC(=O)[C@H](CO)NC(=O)[C@@H]1CCCN1C(=O)[C@@H]1CCCN1C(=O)[C@@H]1CCCN1C(=O)[C@H](C)NC(=O)CNC(=O)[C@H](CO)NC(=O)[C@H](CO)NC(=O)[C@@H]1CCCN1C(=O)CNC(=O)CNC(=O)[C@H](C)NC(=O)[C@H](CC(C)C)NC(=O)[C@H](CC(C)C)NC(=O)[C@H](Cc1c[nH]c2ccccc12)NC(=O)[C@H](CC(N)=O)NC(=O)[C@@H](NC(=O)[C@H](Cc1ccccc1)NC(=O)[C@H](CCC(=O)O)NC(=O)C(C)(C)NC(=O)[C@H](C)NC(=O)[C@H](C)NC(=O)[C@H](CCC(N)=O)NC(=O)[C@H](CCCCN)NC(=O)[C@H](CC(=O)O)NC(=O)[C@H](CC(C)C)NC(=O)[C@H](Cc1ccc(O)cc1)NC(=O)[C@@H](NC(=O)[C@H](CO)NC(=O)[C@H](Cc1ccc(O)cc1)NC(=O)[C@H](CC(=O)O)NC(=O)[C@H](CO)NC(=O)[C@@H](NC(=O)[C@H](Cc1ccccc1)NC(=O)[C@@H](NC(=O)CNC(=O)[C@H](CCC(=O)O)NC(=O)C(C)(C)C(=O)NCCN1CCCCC1=O)[C@@H](C)O)[C@@H](C)O)[C@@H](C)CC)C(C)C)C(N)=O)C(=O)O [Compound 19] | 50% | 0.1 to 1 nM | 50% | 0.1 to 1 nM | < 10 nM | 93% | < 0.1 nM | 93% | < 0.1 nM | – | – | – | – | – | – | – |
| CCCCCCCCCCCCCCCC(=O)N[C@@H](CCC(=O)NCCCC[C@H](NC(=O)[C@H](CO)NC(=O)[C@@H]1CCCN1C(=O)[C@@H]1CCCN1C(=O)[C@@H]1CCCN1C(=O)[C@H](C)NC(=O)CNC(=O)[C@H](CO)NC(=O)[C@H](CO)NC(=O)[C@@H]1CCCN1C(=O)CNC(=O)CNC(=O)[C@H](C)NC(=O)[C@H](CC(C)C)NC(=O)[C@H](CC(C)C)NC(=O)[C@H](Cc1c[nH]c2ccccc12)NC(=O)[C@H](CC(N)=O)NC(=O)[C@@H](NC(=O)[C@H](Cc1ccccc1)NC(=O)[C@H](CCC(=O)O)NC(=O)C(C)(C)NC(=O)[C@H](C)NC(=O)[C@H](C)NC(=O)[C@H](CCC(N)=O)NC(=O)[C@H](CCCCN)NC(=O)[C@H](CC(=O)O)NC(=O)[C@H](CC(C)C)NC(=O)[C@H](Cc1ccc(O)cc1)NC(=O)[C@@H](NC(=O)[C@H](CO)NC(=O)[C@H](Cc1ccc(O)cc1)NC(=O)[C@H](CC(=O)O)NC(=O)[C@H](CO)NC(=O)[C@@H](NC(=O)[C@H](Cc1ccccc1)NC(=O)[C@@H](NC(=O)CNC(=O)[C@H](CCC(=O)O)NC(=O)CSCC(=O)NCCN1CC[C@H](OC)C1=O)[C@@H](C)O)[C@@H](C)O)[C@@H](C)CC)C(C)C)C(N)=O)C(=O)O [Compound 14] | < 10% | – | – | – | – | 81% | – | 81% | – | 10 to 100 nM | > 1000 nM | 0.1 to 1 nM | 0.1 to 1 nM | – | – | – |
| CC[C@H](C)[C@H](NC(=O)[C@H](CO)NC(=O)[C@H](Cc1ccc(O)cc1)NC(=O)[C@H](CC(=O)O)NC(=O)[C@H](CO)NC(=O)[C@@H](NC(=O)[C@H](Cc1ccccc1)NC(=O)[C@@H](NC(=O)CNC(=O)[C@H](CCC(=O)O)NC(=O)CCCCCCN1C(=O)CSC1=O)[C@@H](C)O)[C@@H](C)O)C(=O)N[C@@H](Cc1ccc(O)cc1)C(=O)N[C@@H](CC(C)C)C(=O)N[C@@H](CC(=O)O)C(=O)N[C@@H](CCCCN)C(=O)N[C@@H](CCC(N)=O)C(=O)N[C@@H](C)C(=O)N[C@@H](C)C(=O)NC(C)(C)C(=O)N[C@@H](CCC(=O)O)C(=O)N[C@@H](Cc1ccccc1)C(=O)N[C@H](C(=O)N[C@@H](CC(N)=O)C(=O)N[C@@H](Cc1c[nH]c2ccccc12)C(=O)N[C@@H](CC(C)C)C(=O)N[C@@H](CC(C)C)C(=O)N[C@@H](C)C(=O)NCC(=O)NCC(=O)N1CCC[C@H]1C(=O)N[C@@H](CO)C(=O)N[C@@H](CO)C(=O)NCC(=O)N[C@@H](C)C(=O)N1CCC[C@H]1C(=O)N1CCC[C@H]1C(=O)N1CCC[C@H]1C(=O)N[C@@H](CO)C(=O)N[C@@H](CCCCN)C(N)=O)C(C)C [Compound 176] | – | – | – | – | – | 92% | – | 92% | – | > 1000 nM | > 1000 nM | 10 to 100 nM | 10 to 100 nM | 1.8% | > 1000 nM | – |
| CC[C@H](C)[C@H](NC(=O)[C@H](CO)NC(=O)[C@H](Cc1ccc(O)cc1)NC(=O)[C@H](CC(=O)O)NC(=O)[C@H](CO)NC(=O)[C@@H](NC(=O)[C@H](Cc1ccccc1)NC(=O)[C@@H](NC(=O)CNC(=O)[C@H](CCC(=O)O)NC(=O)CCCC(=O)NCCN1C(=O)CSC1=O)[C@@H](C)O)[C@@H](C)O)C(=O)N[C@@H](Cc1ccc(O)cc1)C(=O)N[C@@H](CC(C)C)C(=O)N[C@@H](CC(=O)O)C(=O)N[C@@H](CCCCN)C(=O)N[C@@H](CCC(N)=O)C(=O)N[C@@H](C)C(=O)N[C@@H](C)C(=O)NC(C)(C)C(=O)N[C@@H](CCC(=O)O)C(=O)N[C@@H](Cc1ccccc1)C(=O)N[C@H](C(=O)N[C@@H](CC(N)=O)C(=O)N[C@@H](Cc1c[nH]c2ccccc12)C(=O)N[C@@H](CC(C)C)C(=O)N[C@@H](CC(C)C)C(=O)N[C@@H](C)C(=O)NCC(=O)NCC(=O)N1CCC[C@H]1C(=O)N[C@@H](CO)C(=O)N[C@@H](CO)C(=O)NCC(=O)N[C@@H](C)C(=O)N1CCC[C@H]1C(=O)N1CCC[C@H]1C(=O)N1CCC[C@H]1C(=O)N[C@@H](CO)C(=O)N[C@@H](CCCCN)C(N)=O)C(C)C [Compound 193] | 44% | 10 to 100 nM | 44% | 10 to 100 nM | > 1000 nM | 117% | 1 to 10 nM | 117% | 1 to 10 nM | – | – | – | – | – | – | – |
| CC[C@H](C)[C@H](NC(=O)[C@H](CO)NC(=O)[C@H](Cc1ccc(O)cc1)NC(=O)[C@H](CC(=O)O)NC(=O)[C@H](CO)NC(=O)[C@@H](NC(=O)[C@H](Cc1ccccc1)NC(=O)[C@@H](NC(=O)CNC(=O)[C@H](CCC(=O)O)NC(=O)CSCC(=O)NCCN1C(=O)c2ccccc2C1=O)[C@@H](C)O)[C@@H](C)O)C(=O)N[C@@H](Cc1ccc(O)cc1)C(=O)N[C@@H](CC(C)C)C(=O)N[C@@H](CC(=O)O)C(=O)N[C@@H](CCCCN)C(=O)N[C@@H](CCC(N)=O)C(=O)N[C@@H](C)C(=O)N[C@H](C(=O)NC(C)(C)C(=O)N[C@@H](CCC(=O)O)C(=O)N[C@@H](Cc1ccccc1)C(=O)N[C@H](C(=O)N[C@@H](CC(N)=O)C(=O)N[C@@H](Cc1c[nH]c2ccccc12)C(=O)N[C@@H](CC(C)C)C(=O)N[C@@H](CC(C)C)C(=O)N[C@@H](C)C(=O)NCC(=O)NCC(=O)N1CCC[C@H]1C(=O)N[C@@H](CO)C(=O)N[C@@H](CO)C(=O)NCC(=O)N[C@@H](C)C(=O)N1CCC[C@H]1C(=O)N1CCC[C@H]1C(=O)N1CCC[C@H]1C(=O)N[C@@H](CO)C(=O)N[C@@H](CCCCN)C(N)=O)C(C)C)C(C)C [Compound 147] (X1-EGTFTSDYSIYLDKQAV[Aib]EFVNWLLAGGPSSGAPPPSK-NH2) | 114 to 128% | – | 114 to 128% | – | – | 87 to 97% | – | 87 to 97% | – | < 0.1 nM | > 1000 nM | 1 to 10 nM | 1 to 10 nM | – | – | < 0.1 nM |
| CCCCCCCCCCCCCCCC(=O)N[C@@H](CCC(=O)NCCCC[C@H](NC(=O)[C@H](CO)NC(=O)[C@@H]1CCCN1C(=O)[C@@H]1CCCN1C(=O)[C@@H]1CCCN1C(=O)[C@H](C)NC(=O)CNC(=O)[C@H](CO)NC(=O)[C@H](CO)NC(=O)[C@@H]1CCCN1C(=O)CNC(=O)CNC(=O)[C@H](C)NC(=O)[C@H](CC(C)C)NC(=O)[C@H](CC(C)C)NC(=O)[C@H](Cc1c[nH]c2ccccc12)NC(=O)[C@H](CC(N)=O)NC(=O)[C@@H](NC(=O)[C@H](Cc1ccccc1)NC(=O)[C@H](CCC(=O)O)NC(=O)C(C)(C)NC(=O)[C@H](C)NC(=O)[C@H](C)NC(=O)[C@H](CCC(N)=O)NC(=O)[C@H](CCCCN)NC(=O)[C@H](CC(=O)O)NC(=O)[C@H](CC(C)C)NC(=O)[C@H](Cc1ccc(O)cc1)NC(=O)[C@@H](NC(=O)[C@H](CO)NC(=O)[C@H](Cc1ccc(O)cc1)NC(=O)[C@H](CC(=O)O)NC(=O)[C@H](CO)NC(=O)[C@@H](NC(=O)[C@H](Cc1ccccc1)NC(=O)[C@@H](NC(=O)CNC(=O)[C@H](Cc1nn[nH]n1)NC(=O)CSCC(=O)NCCN1CCCCC1=O)[C@@H](C)O)[C@@H](C)O)[C@@H](C)CC)C(C)C)C(N)=O)C(=O)O [Compound 223] (X6-[Ala(1H-tetrazol-5-yl)]GTFTSDYSIYLDKQAA[Aib]EFVNWLLAGGPSSGAPPPSK([γGlu-Palmitoyl])-NH2) | – | – | 91% | 0.1 to 1 nM | 10 to 1000 nM | – | – | 101% | < 0.1 nM | – | – | – | – | – | – | – |
